Two molecules from PMC12593396 (2025) can be followed below.

SMILES strings stand for the structures.

This assay relates to 3WJ (PAGE) (DNA, junction) CGGAACGGCACTCG/CGAGTGCAGCGTGG/CCACGCTCGTTCCG
Nature of the assay: PAGE junction assembly. The note with it: 10 mM NaCl, 1x TB.

`C(=Nc1ccc(Cc2ccc(N=Cc3ccccn3)cc2)cc1)c1ccccn1.C(=Nc1ccc(Cc2ccc(N=Cc3ccccn3)cc2)cc1)c1ccccn1.C(=Nc1ccc(Cc2ccc(N=Cc3ccccn3)cc2)cc1)c1ccccn1.[Ni+2].[Ni+2]`: the binding result is recorded as “yes”.
In the case of `[Pt+2].[Pt+2].c1cncc(Oc2ccc(Oc3cccnc3)cc2)c1.c1cncc(Oc2ccc(Oc3cccnc3)cc2)c1.c1cncc(Oc2ccc(Oc3cccnc3)cc2)c1.c1cncc(Oc2ccc(Oc3cccnc3)cc2)c1`, the binding entry (0.1 to 5 equivalents) is on record as “yes”.
